The structures appear in SMILES notation.

The test system of the assay is NL-RLuc virus (recombinant NL4-3 HIV with Renilla Luciferase gene). Put plainly: Inhibition of HIV replication (NL-RLuc virus in MT-2 cells, luciferase readout). In kind it is cell-based, Human immunodeficiency virus (HIV). Conditions: MT2, 120 h. The gist of the method: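 MT-2 cells infected with NL4-3-derived virus carrying Renilla luciferase in place of part of nef, grown 5 days with serial compound dilutions in RPMI 1640/10% FBS. Virus growth read as luciferase expression. EC50 from median effect equation, at least 2 experiments.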
Consider `Cc1nc(C)c([C@H](OC(C)(C)C)C(=O)O)c(N2CCC(C)(C)CC2)c1-c1ccc2c(c1)CCN(c1cc(N3CCC(N4CCOCC4)CC3)ncn1)C2` [Example 134, (S)-2-(tert-Butoxy)-2-(4-(4,4-dimethylpiperidin-1-yl)-2,6-dimethyl-5-(2-(6-(4-morpholinopiperidin-1-yl)pyrimidin-4-yl)-1,2,3,4-tetrahydroisoquinolin-6-yl)pyridin-3-yl)acetic Acid], for which the 50% effective concentration (EC50) was 4 nM.
As to `Cc1nc(C)c([C@H](OC(C)(C)C)C(=O)O)c(N2CCC(C)(C)CC2)c1-c1ccc2c(c1)CCN(c1cc(N3CCC(N4CCCCC4)CC3)ncn1)C2` [Example 135, (S)-2-(5-(2-(6-([1,4′-Bipiperidin]-1′-yl)pyrimidin-4-yl)-1,2,3,4-tetrahydroisoquinolin-6-yl)-4-(4,4-dimethylpiperidin-1-yl)-2,6-dimethylpyridin-3-yl)-2-(tert-butoxy)acetic Acid], the EC50 amounted to 19 nM.
`Cc1nc(C)c([C@H](OC(C)(C)C)C(=O)O)c(N2CCC(C)(C)CC2)c1-c1ccc2c(c1)CCN(c1cc(N3CCC(N4CCN(C)CC4)CC3)ncn1)C2` [Example 136, (S)-2-(tert-Butoxy)-2-(4-(4,4-dimethylpiperidin-1-yl)-2,6-dimethyl-5-(2-(6-(4-(4-methylpiperazin-1-yl)piperidin-1-yl)pyrimidin-4-yl)-1,2,3,4-tetrahydroisoquinolin-6-yl)pyridin-3-yl)acetic Acid]: the EC50 worked out at 16 nM.
Next, `Cc1nc(C)c([C@H](OC(C)(C)C)C(=O)O)c(N2CCC(C)(C)CC2)c1-c1ccc2c(c1)CCN(c1cc(N3CC(C)CC(C)C3)ncn1)C2` (stereo partly drawn) [Example 137, (2S)-2-(tert-Butoxy)-2-(4-(4,4-dimethylpiperidin-1-yl)-5-(2-(6-(3,5-dimethylpiperidin-1-yl)pyrimidin-4-yl)-1,2,3,4-tetrahydroisoquinolin-6-yl)-2,6-dimethylpyridin-3-yl)acetic Acid]: 7 nM.
Consider `Cc1nc(C)c([C@H](OC(C)(C)C)C(=O)O)c(N2CCC(C)(C)CC2)c1-c1ccc2c(c1)CCN(c1cc(N3CCC(C)CC3)ncn1)C2` [Example 138, (S)-2-(tert-Butoxy)-2-(4-(4,4-dimethylpiperidin-1-yl)-2,6-dimethyl-5-(2-(6-(4-methylpiperidin-1-yl)pyrimidin-4-yl)-1,2,3,4-tetrahydroisoquinolin-6-yl)pyridin-3-yl)acetic Acid], for which the 50% effective concentration (EC50) was 2 nM.
Next, `Cc1nc(C)c([C@H](OC(C)(C)C)C(=O)O)c(N2CCC(C)(C)CC2)c1-c1ccc2c(c1)CCN(c1cc(N3CCCC(C)(C)C3)ncn1)C2` [Example 139, (S)-2-(tert-Butoxy)-2-(4-(4,4-dimethylpiperidin-1-yl)-5-(2-(6-(3,3-dimethylpiperidin-1-yl)pyrimidin-4-yl)-1,2,3,4-tetrahydroisoquinolin-6-yl)-2,6-dimethylpyridin-3-yl)acetic Acid]: 4 nM.
Next, `Cc1nc(C)c([C@H](OC(C)(C)C)C(=O)O)c(N2CCC(C)(C)CC2)c1-c1ccc2c(c1)CCN(c1cc(N(C)CCCN(C)C)ncn1)C2` [Example 140, (S)-2-(tert-Butoxy)-2-(5-(2-(6-((3-(dimethylamino)propyl)(methyl)amino)pyrimidin-4-yl)-1,2,3,4-tetrahydroisoquinolin-6-yl)-4-(4,4-dimethylpiperidin-1-yl)-2,6-dimethylpyridin-3-yl)acetic Acid]: 35 nM; `CCC(C)(C)O[C@H](C(=O)O)c1c(C)nc(C)c(-c2ccc3c(c2)CCN(c2ncnc4c2oc2ccccc24)C3)c1N1CCC(C)(C)CC1` [Example 141, (S)-2-(5-(2-(Benzofuro[3,2-d]pyrimidin-4-yl)-1,2,3,4-tetrahydroisoquinolin-6-yl)-4-(4,4-dimethylpiperidin-1-yl)-2,6-dimethylpyridin-3-yl)-2-(tert-pentyloxy)acetic Acid]: 2 nM; `Cc1nc(C)c([C@H](OC(C)(C)C)C(=O)O)c(N2CCC(C)(C)CC2)c1-c1ccc2c(c1)CCN(c1cccc(C(=O)O)n1)C2` [Example 142, (S)-6-(6-(5-(tert-Butoxy(carboxy)methyl)-4-(4,4-dimethylpiperidin-1-yl)-2,6-dimethylpyridin-3-yl)-3,4-dihydroisoquinolin-2(1H)-yl)picolinic Acid]: 381 nM.
As for `Cc1nc(C)c([C@H](OC(C)(C)C)C(=O)O)c(N2CCC(C)(C)CC2)c1-c1ccc2c(c1)CCN(c1ccc(C(F)(F)F)cn1)C2` [Example 143, (S)-2-(tert-butoxy)-2-(4-(4,4-dimethylpiperidin-1-yl)-2,6-dimethyl-5-(2-(5-(trifluoromethyl)pyridin-2-yl)-1,2,3,4-tetrahydroisoquinolin-6-yl)pyridin-3-yl)acetic Acid], the EC50 stood at 14 nM.
Next, `Cc1nc(C)c([C@H](OC(C)(C)C)C(=O)O)c(N2CCC(C)(C)CC2)c1-c1ccc2c(c1)CCN(c1ccnc(N3CCC(CCO)CC3)n1)C2` [Example 144, (S)-2-(tert-Butoxy)-2-(4-(4,4-dimethylpiperidin-1-yl)-5-(2-(2-(4-(2-hydroxyethyl)piperidin-1-yl)pyrimidin-4-yl)-1,2,3,4-tetrahydroisoquinolin-6-yl)-2,6-dimethylpyridin-3-yl)acetic Acid]: 3 nM.
For `Cc1nc(C)c([C@H](OC(C)(C)C)C(=O)O)c(N2CCC(C)(C)CC2)c1-c1ccc2c(c1)CCN(c1nccc(N3CCC(CC(C)(C)O)CC3)n1)C2` [Example 145, (S)-2-(tert-Butoxy)-2-(4-(4,4-dimethylpiperidin-1-yl)-5-(2-(4-(4-(2-hydroxy-2-methylpropyl)piperidin-1-yl)pyrimidin-2-yl)-1,2,3,4-tetrahydroisoquinolin-6-yl)-2,6-dimethylpyridin-3-yl)acetic Acid], the EC50 came out at 10 nM.
Consider `Cc1ncc(-c2ccc3c(c2)CCN(c2nccc(-c4cccnc4)n2)C3)c(N2CCC(C)(C)CC2)c1[C@H](OC(C)(C)C)C(=O)O` [Example 146, (S)-2-(tert-Butoxy)-2-(4-(4,4-dimethylpiperidin-1-yl)-2-methyl-5-(2-(4-(pyridin-3-yl)pyrimidin-2-yl)-1,2,3,4-tetrahydroisoquinolin-6-yl)pyridin-3-yl)acetic Acid], for which the concentration giving a half-maximal response (EC50) came out at 0.5 nM.
As for `Cc1ncc(-c2ccc3c(c2)CCN(c2nccc(-c4cnccn4)n2)C3)c(N2CCC(C)(C)CC2)c1[C@H](OC(C)(C)C)C(=O)O` [Example 147, (S)-2-(tert-Butoxy)-2-(4-(4,4-dimethylpiperidin-1-yl)-2-methyl-5-(2-(4-(pyrazin-2-yl)pyrimidin-2-yl)-1,2,3,4-tetrahydroisoquinolin-6-yl)pyridin-3-yl)acetic Acid], the EC50 worked out at 2 nM.
Take `CC1(C)CCN(c2c(-c3ccc4c(c3)CCN(c3nccc(N5CCOCC5)n3)C4)cnc(Cl)c2[C@H](OC(C)(C)C)C(=O)O)CC1` [Example 148, (S)-2-(tert-Butoxy)-2-(2-chloro-4-(4,4-dimethylpiperidin-1-yl)-5-(2-(4-morpholinopyrimidin-2-yl)-1,2,3,4-tetrahydroisoquinolin-6-yl)pyridin-3-yl)acetic Acid]: the EC50 was found to be 0.2 nM.
Next, `CC1(C)CCN(c2c(-c3ccc4c(c3)CCN(c3nccc(-c5cccnc5)n3)C4)cnc(Cl)c2[C@H](OC(C)(C)C)C(=O)O)CC1` [Example 149, (S)-2-(tert-Butoxy)-2-(2-chloro-4-(4,4-dimethylpiperidin-1-yl)-5-(2-(4-(pyridin-3-yl)pyrimidin-2-yl)-1,2,3,4-tetrahydroisoquinolin-6-yl)pyridin-3-yl)acetic Acid]: 2 nM; `CC1(C)CCN(c2c(-c3ccc4c(c3)CCN(c3nccc(N5CCOCC5)n3)C4)c(CN3CCC4(CCC4)CC3)nc(Cl)c2[C@H](OC(C)(C)C)C(=O)O)CC1` [Example 150, (S)-2-(6-((7-Azaspiro[3.5]nonan-7-yl)methyl)-2-chloro-4-(4,4-dimethylpiperidin-1-yl)-5-(2-(4-morpholinopyrimidin-2-yl)-1,2,3,4-tetrahydroisoquinolin-6-yl)pyridin-3-yl)-2-(tert-butoxy)acetic Acid]: 0.3 nM.
For the molecule `CC1(C)CCN(c2c(-c3ccc4c(c3)CCN(c3nccc(N5CCOCC5)n3)C4)c(CO)nc(Cl)c2[C@H](OC(C)(C)C)C(=O)O)CC1` [Example 151, (S)-2-(tert-Butoxy)-2-(2-chloro-4-(4,4-dimethylpiperidin-1-yl)-6-(hydroxymethyl)-5-(2-(4-morpholinopyrimidin-2-yl)-1,2,3,4-tetrahydroisoquinolin-6-yl)pyridin-3-yl)acetic Acid], the EC50 is 2 nM.
Take `CC1(C)CCN(c2c(-c3ccc4c(c3)CCN(c3ncnc5c3oc3ncccc35)C4)c(CN3CCC4(CCC4)CC3)nc(Cl)c2[C@H](OC(C)(C)C)C(=O)O)CC1` [Example 152, (S)-2-(6-((7-Azaspiro[3.5]nonan-7-yl)methyl)-2-chloro-4-(4,4-dimethylpiperidin-1-yl)-5-(2-(pyrido[3′,2′:4,5]furo[3,2-d]pyrimidin-4-yl)-1,2,3,4-tetrahydroisoquinolin-6-yl)pyridin-3-yl)-2-(tert-butoxy)acetic Acid]: the half-maximal effective concentration (EC50) was 0.1 nM.
For the molecule `CC1(C)CCN(c2c(-c3ccc4c(c3)CCN(c3nccc(-c5cnccn5)n3)C4)cnc(Cl)c2[C@H](OC(C)(C)C)C(=O)O)CC1` [Example 153, (S)-2-(tert-Butoxy)-2-(2-chloro-4-(4,4-dimethylpiperidin-1-yl)-5-(2-(4-(pyrazin-2-yl)pyrimidin-2-yl)-1,2,3,4-tetrahydroisoquinolin-6-yl)pyridin-3-yl)acetic Acid], the concentration for a half-maximal effect (EC50) was found to be 2 nM.
`Cc1cccc(Cl)c1CN1CCc2cc(-c3c(CNCCCc4ccccc4)nc(C)c([C@H](OC(C)(C)C)C(=O)O)c3N3CCC(C)(C)CC3)ccc2C1` [Example 154, (S)-2-(tert-Butoxy)-2-(5-(2-(2-chloro-6-methylbenzyl)-1,2,3,4-tetrahydroisoquinolin-6-yl)-4-(4,4-dimethylpiperidin-1-yl)-2-methyl-6-(((3-phenylpropyl)amino)methyl)pyridin-3-yl)acetic Acid]: the EC50 was determined as 97 nM.

The values are drawn from patent publication US20200016136A1 (VIIV HEALTHCARE UK (NO. 5) LIMITED, priority 2017, published 2020).
